According to patent US11986465B1, “2-amino-4-(4-bromophenyl)-6-ethoxypyridine-3,5-dicarbonitrile as an antibacterial compound” (KING FAISAL UNIVERSITY, priority 2023, dated 2024):

How the values were obtained:
Type in all cases: cell-based
[1] = tested on: Staphylococcus aureus; assay: Agar plate disc-diffusion antibacterial test, Staphylococcus aureus; settings: Gram positive
Procedure: (§1) The agar plate disc-diffusion method was applied. […] The discs were then placed onto the surface of agar plates (nutrient agar for bacteria) seeded with the test organism. Each plate contained 15 mL of the agar medium, previously seeded with 0.2 mL of the broth culture of each organism pregrown for 18 hours. The inhibition zones were measured in millimeters (mm). Discs impregnated with DMSO were used as a control, and its inhibition zone was subtracted from the tested compound's actual inhibition zone.
(§2) The antibacterial activity was screened against gram positive bacteria namely Bacillus cereus and Staphylococcus aureus and gram-negative bacterial strains namely Pseudomonas aeruginosa and Escherichia coli using ciprofloxacin as a reference, as shown in Table 1.

[2] = tested on: Escherichia coli; assay: Agar plate disc-diffusion antibacterial test, Escherichia coli; settings: Gram negative
Procedure: as §1, §2

[3] = tested on: Pseudomonas aeruginosa; assay: Agar plate disc-diffusion antibacterial test, Pseudomonas aeruginosa; settings: Gram negative
Procedure: as §1, §2

[4] = tested on: Bacillus cereus; assay: Agar plate disc-diffusion antibacterial test, Bacillus cereus; settings: Gram positive
Procedure: as §1, §2

[5] = A = concentration of comp. = 10,000 μL
[6] = B = concentration of comp. = 30.000 μL
[7] = C = concentration of comp. = 50,000 μL

CCOc1nc(N)c(C#N)c(-c2ccc(Br)cc2)c1C#N [Compound 3, 2-amino-4-(4-bromophenyl)-6-ethoxypyridine-3,5-dicarbonitrile]
inhibition zone, Staphylococcus aureus, A [1, 5]: 19 mm
inhibition zone, Staphylococcus aureus, B [1, 6]: 26 mm
inhibition zone, Staphylococcus aureus, C [1, 7]: 31 mm
inhibition zone, Escherichia coli, A [2, 5]: 37 mm
inhibition zone, Escherichia coli, B [2, 6]: 40 mm
inhibition zone, Escherichia coli, C [2, 7]: 44 mm
inhibition zone, Pseudomonas aeruginosa, A [3, 5]: 23 mm
inhibition zone, Pseudomonas aeruginosa, B [3, 6]: 33 mm
inhibition zone, Pseudomonas aeruginosa, C [3, 7]: 39 mm
inhibition zone, Bacillus Cereus, A [4, 5]: 30 mm
inhibition zone, Bacillus Cereus, B [4, 6]: 36 mm
inhibition zone, Bacillus Cereus, C [4, 7]: 41 mm
